From PMC2605449, “Modification of carbonic anhydrase II with acetaldehyde, the first metabolite of ethanol, leads to decreased enzyme activity” (BMC Biochemistry, 2008) come the findings set out here.

This experiment has as its target T1, recombinant human CA II (carbonic anhydrase isozyme II) (Homo sapiens, UniProt P00918, S2A).
T1 construct: gene CA2; recombinant in E. coli, full length, initiator Met removed, second residue Ser changed to Ala by cloning
Put plainly: end-point titration (Maren) with spectrophotometric colour determination. The experiment is classed as biochemical. To be noted: covalent; pretreated […] h at […] °C, […] NaBH3(CN) added after […] h (N-ethyllysine adducts); CO2 substrate, ice-cold.

Each structure is given as a SMILES string.

Turning to `CC=O` [acetaldehyde], the “% reduction in activity at 100 mM” value is on record as 23.7%.
